Reference: PMC8584349 (International Journal of Molecular Sciences, 2021)
Read-outs that look alike come from different tables or passages of the source.

Legend:
[1] = test system: authentic HCoV-229E; assay: microbe, parasite or virus in culture; format: cell-based; details: Human coronavirus 229E; Huh-7 cell line; cells pretreated with 25-HC 8–12 h; CCK-8; read-out: IC50, inhibition of authentic HCoV-229E infection
[2] = test system: SARS-CoV-2 PsV; assay: microbe, parasite or virus in culture; format: cell-based; details: Severe acute respiratory syndrome coronavirus 2; target cells pretreated with 25-HC 8–12 h; luciferase; read-out: IC50, inhibition of SARS-CoV-2 PsV infection
[3] = test system: SARS-CoV PsV; assay: microbe, parasite or virus in culture; format: cell-based; details: Severe acute respiratory syndrome coronavirus, read-out: IC50, inhibition of SARS-CoV PsV infection
[4] = test system: SARS-CoV-2 PsV
[5] = test system: MERS-CoV PsV; details: in 25-HC/EK1 combination versus alone
[6] = test system: SARS-CoV-2 PsV; assay: microbe, parasite or virus in culture
[7] = test system: MERS-CoV PsV; assay: microbe, parasite or virus in culture; details: Middle East respiratory syndrome-related coronavirus
[8] = test system: authentic HCoV-OC43; assay: Authentic virus inhibition assay, HCoV-OC43 in RD cells; format: cell-based; details: RD cell line, CCK8, triplicate, repeated twice, read-out: IC50, inhibition of HCoV-OC43 replication
Description: (§1) Inhibition of authentic coronaviruses was performed as previously reported. Briefly, authentic HCoV-OC43 or HCoV-229E was coincubated with a test peptide at different concentrations at 37 °C for 30 min. Then, these authentic virus–peptide mixtures were added into target cells in a 96-well plate (Huh-7 cell line for HCoV-229E, RD cell line for HCoV-OC43). CCK8 solution was used to assess virus-induced cytopathy when the cytopathic effect (CPE) of DMSO-treated target cells was clear and the IC50 value was calculated.

[9] = test system: authentic HCoV-229E; assay: Authentic virus inhibition assay, HCoV-229E in Huh-7 cells; format: cell-based; details: Huh-7 cell line, CCK8, triplicate, repeated twice, read-out: IC50, inhibition of HCoV-229E replication
Description: as §1

[10] = test system: SARS-CoV-2 VOC PsVs; details: 12 h
[11] = test system: SARS-CoV PsV; details: 12 h

SMILES | IC50 [1] [nM] | IC50 [2] [nM] | IC50 [3] [nM] | dose reduction ([4]; SARS-CoV-2 PsV, in 25-HC/EK1 combination versus alone) [fold] | dose reduction [5] [fold] | IC50 ([6]; Severe acute respiratory syndrome coronavirus 2, read-out: IC50, tested alone) [nM] | IC50 ([6]; Severe acute respiratory syndrome coronavirus 2, read-out: IC50, tested in EK1/25-HC combination) [nM] | IC50 ([7]; read-out: IC50, tested alone) [nM] | IC50 ([7]; read-out: IC50, tested in EK1/25-HC combination) [nM] | IC50 [8] [nM] | IC50 [9] [nM] | IC50 ([4]; PsV, 12 h) [nM] | IC50 [10] [nM] | IC50 [11] [nM]
C[C@H](CCCC(C)(C)O)[C@H]1CC[C@H]2[C@@H]3CC=C4C[C@@H](O)CC[C@]4(C)[C@H]3CC[C@]12C [25-HC, 25-Hydroxycholesterol] | 5350 | 4110 | 2790 | 3 | 4 | 9300 | 3700 | 6800 | 1600 |  |  |  |  | 
CC[C@H](C)[C@H](NC(=O)[C@H](C)NC(=O)[C@H](CCC(=O)O)NC(=O)[C@H](CCC(=O)O)NC(=O)[C@H](CC(C)C)NC(=O)[C@H](CCCCN)NC(=O)[C@H](CCCCN)NC(=O)[C@H](CCSC)NC(=O)[C@H](CCC(=O)O)NC(=O)[C@H](Cc1ccc(O)cc1)NC(=O)[C@H](CCC(=O)O)NC(=O)[C@H](CC(C)C)NC(=O)[C@H](CC(=O)O)NC(=O)[C@H](CC(C)C)NC(=O)[C@H](Cc1ccccc1)NC(=O)[C@@H](NC(=O)[C@@H](NC(=O)[C@H](CC(N)=O)NC(=O)[C@@H](NC(=O)[C@H](CCC(N)=O)NC(=O)[C@H](CC(=O)O)NC(=O)[C@H](CC(C)C)NC(=O)[C@@H](N)CO)[C@@H](C)CC)C(C)C)[C@@H](C)O)C(=O)N[C@@H](CCCCN)C(=O)N[C@@H](CCCCN)C(=O)N[C@@H](CC(C)C)C(=O)N[C@@H](CCC(=O)O)C(=O)N[C@@H](CCC(=O)O)C(=O)N[C@@H](CO)C(=O)N[C@@H](Cc1ccc(O)cc1)C(=O)N[C@H](C(=O)N[C@@H](CC(=O)O)C(=O)N[C@@H](CC(C)C)C(=O)N[C@@H](CCCCN)C(=O)N[C@@H](CCC(=O)O)C(=O)N[C@@H](CC(C)C)C(=O)O)[C@@H](C)CC [EK1] |  |  |  |  |  |  |  |  |  | 1510 | 2200 | 840 | 480 to 4610 | 2800
